Measured values taken from ChEMBL document CHEMBL1201862, “PubChem BioAssay data set” (2004).
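All cell lines were grown in 96-well plates and treated with compound for 48 hours. GI50 is the concentration that inhibits growth by half.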 Activity calls are given as the source filed them. Cut-off read from the data, not from the text of the source: active = GI50 up to about 1.1 µM and inactive = higher.

Tests used:
Assay in all cases: inhibition of tumour cell growth, NCI panel, 48 h
A498 = system: A498
ACHN = system: ACHN
CCRF-CEM = system: CCRF-CEM
HCT-15 = system: HCT-15
HT-29 = system: HT-29
Hs-578T = system: Hs-578T
M14 = system: M14
MCF7 = system: MCF7
MOLT-4 = system: MOLT-4
NCI-H226 = system: NCI-H226
NCI-H23 = system: NCI-H23
OVCAR-5 = system: OVCAR-5
RPMI-8226 = system: RPMI-8226
SF-268 = system: SF-268
SF-539 = system: SF-539
SK-MEL-28 = system: SK-MEL-28
SN12C = system: SN12C
SR = system: SR
UACC-257 = system: UACC-257
HCC 2998 = system: HCC 2998

SMILES	GI50 (A498)	GI50 (ACHN)	GI50 (CCRF-CEM)	GI50 (HCT-15) [µM]	GI50 (HT-29)	GI50 (Hs-578T)	GI50 (M14)	GI50 (MCF7)	GI50 (MOLT-4)	GI50 (NCI-H226)	GI50 (NCI-H23)	GI50 (OVCAR-5)	GI50 (RPMI-8226)	GI50 (SF-268)	GI50 (SF-539)	GI50 (SK-MEL-28)	GI50 (SN12C)	GI50 (SR)	GI50 (UACC-257)	GI50 (HCC 2998)
CC1=NN(c2ccccc2)C(=O)C1/N=N/c1ccc(S(N)(=O)=O)cc1 (stereo not given)	> 100 µM (inactive)	> 100 µM (inactive)	> 100 µM (inactive)	> 100	> 100 µM (inactive)	> 100 µM (inactive)	> 100 µM (inactive)	> 100 µM (inactive)	> 100 µM (inactive)	> 100 µM (inactive)	> 100 µM (inactive)	> 100 µM (inactive)	> 100 µM (inactive)	> 100 µM (inactive)	> 100 µM (inactive)	> 100 µM (inactive)	> 100 µM (inactive)	> 100 µM (inactive)	> 100 µM (inactive)	
N#CC(c1ccccc1)(c1ccccc1)[C@@H](c1ccccc1)[C@H](Cc1ccccc1)NS(=O)(=O)c1ccccc1	> 100 µM (inactive)	> 100 µM (inactive)	> 100 µM (inactive)	> 100	> 100 µM (inactive)	> 100 µM (inactive)	> 100 µM (inactive)	> 100 µM (inactive)	15.7 µM (inactive)		> 100 µM (inactive)	> 100 µM (inactive)	10.3 µM (inactive)	> 100 µM (inactive)	> 100 µM (inactive)	> 100 µM (inactive)	> 100 µM (inactive)	83.9 µM (inactive)	> 100 µM (inactive)	> 100 µM (inactive)
O=C(Oc1ccc(OC(Oc2ccccc2)c2ccccc2)cc1)c1ccccc1 (stereo not given)	18.6 µM (inactive)	26.7 µM (inactive)	17.3 µM (inactive)	> 10	22.9 µM (inactive)	> 31.6 µM (inactive)	8.38 µM (inactive)	29.8 µM (inactive)	16 µM (inactive)	> 31.6 µM (inactive)	6.21 µM (inactive)	> 74.1 µM (inactive)	13.2 µM (inactive)	13 µM (inactive)		17.1 µM (inactive)	28.8 µM (inactive)	19.1 µM (inactive)	17.9 µM (inactive)	17.6 µM (inactive)
COC(=O)c1sc2c(=O)c(C(=O)OC)c(C(=O)OC)sc2c(=O)c1C(=O)OC	> 100 µM (inactive)	> 100 µM (inactive)		> 100	> 100 µM (inactive)	> 64.1 µM (inactive)	> 100 µM (inactive)	> 100 µM (inactive)	5.85 µM (inactive)	> 100 µM (inactive)	> 100 µM (inactive)	> 100 µM (inactive)	> 100 µM (inactive)	> 62.7 µM (inactive)	> 100 µM (inactive)	> 100 µM (inactive)	> 100 µM (inactive)	37.8 µM (inactive)	> 100 µM (inactive)	> 100 µM (inactive)
Cc1cn(CC2=NCCCN2)c(=O)[nH]c1=O	> 100 µM (inactive)	> 100 µM (inactive)	> 100 µM (inactive)	> 100	> 100 µM (inactive)	> 100 µM (inactive)	> 100 µM (inactive)	> 100 µM (inactive)	> 100 µM (inactive)	> 100 µM (inactive)	> 100 µM (inactive)	> 100 µM (inactive)	> 100 µM (inactive)	> 100 µM (inactive)		> 100 µM (inactive)	> 100 µM (inactive)	> 100 µM (inactive)	> 100 µM (inactive)	> 100 µM (inactive)
O=C(NCc1cccnc1)NCc1cccnc1	> 100 µM (inactive)	> 100 µM (inactive)		> 100	> 100 µM (inactive)	> 100 µM (inactive)	> 100 µM (inactive)	> 100 µM (inactive)		58.9 µM (inactive)	> 100 µM (inactive)	> 100 µM (inactive)	> 100 µM (inactive)	> 100 µM (inactive)	> 100 µM (inactive)	> 100 µM (inactive)	> 100 µM (inactive)	> 100 µM (inactive)	> 100 µM (inactive)	> 100 µM (inactive)
CC1(C)[C@H]2CC[C@@]13C(=O)N1C(=O)O[C@@H]([C@H]1Cl)C(Cl)(COCc1ccccc1)C(=O)OCCO[C@H]3C2 (stereo not given in full)	> 100 µM (inactive)	70.6 µM (inactive)	38.5 µM (inactive)	40.8	35.6 µM (inactive)	88.1 µM (inactive)	69.2 µM (inactive)	44.2 µM (inactive)	21 µM (inactive)		40.9 µM (inactive)	> 100 µM (inactive)	28.2 µM (inactive)	> 100 µM (inactive)	> 100 µM (inactive)	> 100 µM (inactive)		39.7 µM (inactive)	48.9 µM (inactive)	57.3 µM (inactive)
COc1ccc(C2c3cc4c(cc3OC(N3CCOCC3)C2C)OCO4)cc1 (stereo not given)	6.03 µM (inactive)	21.4 µM (inactive)	20.3 µM (inactive)	24.5	25.8 µM (inactive)	15.3 µM (inactive)	26.9 µM (inactive)	26.1 µM (inactive)	12 µM (inactive)		39 µM (inactive)	34.8 µM (inactive)	15.3 µM (inactive)	27.9 µM (inactive)	21.4 µM (inactive)	28.6 µM (inactive)	37.3 µM (inactive)	15.1 µM (inactive)	21.9 µM (inactive)	22.4 µM (inactive)
C[C@@H]1[C@H](O)CC2=C(CC[C@@H](O)C2(C)C)[C@@]1(CO)CCc1ccoc1	> 50 µM (inactive)	> 50 µM (inactive)	29.4 µM (inactive)	> 50	> 50 µM (inactive)	> 50 µM (inactive)	> 50 µM (inactive)	> 50 µM (inactive)	34.7 µM (inactive)	> 50 µM (inactive)	> 50 µM (inactive)	> 50 µM (inactive)			> 50 µM (inactive)	> 50 µM (inactive)	> 50 µM (inactive)	25.1 µM (inactive)	> 50 µM (inactive)	> 50 µM (inactive)
O/N=N/c1ccc([SH2]c2ccc3ccccc3c2)cn1	57.9 µM (inactive)	18.6 µM (inactive)	3.04 µM (inactive)	17.1	34 µM (inactive)	43 µM (inactive)	19.3 µM (inactive)	17.9 µM (inactive)	1.62 µM (inactive)	31.6 µM (inactive)	12.2 µM (inactive)	32.7 µM (inactive)		22.3 µM (inactive)	41.9 µM (inactive)	32.7 µM (inactive)	20.5 µM (inactive)	21.8 µM (inactive)	36.1 µM (inactive)	13.4 µM (inactive)
Cc1cc2c(cc1O)CC[C@@H]1[C@@H]2CC[C@]2(C)[C@@H](O)CC[C@@H]12	18.7 µM (inactive)	18.9 µM (inactive)	4.32 µM (inactive)	4.08	17.1 µM (inactive)	2.51 µM (inactive)	7.24 µM (inactive)	8.85 µM (inactive)	3.68 µM (inactive)		13.6 µM (inactive)	21.2 µM (inactive)	4.74 µM (inactive)	15.5 µM (inactive)		10.8 µM (inactive)	13.3 µM (inactive)	1.83 µM (inactive)	15.3 µM (inactive)	11.4 µM (inactive)
